Consider 30 compounds from patent US20220168309A1 (F-STAR THERAPEUTICS, INC., priority 2019, published 2022).

STING, sequence (Q86WV6 whole entry): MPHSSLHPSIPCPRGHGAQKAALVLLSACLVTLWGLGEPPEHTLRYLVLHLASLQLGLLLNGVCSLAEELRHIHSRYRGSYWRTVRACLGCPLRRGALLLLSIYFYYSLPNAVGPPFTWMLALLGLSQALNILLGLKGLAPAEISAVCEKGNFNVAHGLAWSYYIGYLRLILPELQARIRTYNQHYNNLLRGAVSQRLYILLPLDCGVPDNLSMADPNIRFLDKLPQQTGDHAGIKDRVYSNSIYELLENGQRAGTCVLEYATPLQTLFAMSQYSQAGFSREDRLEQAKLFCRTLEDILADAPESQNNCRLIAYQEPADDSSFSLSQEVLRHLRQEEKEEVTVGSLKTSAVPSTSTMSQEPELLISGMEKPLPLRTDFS

One assay concerns the target STING (Homo sapiens, UniProt Q86WV6). As to the kind of experiment: STING antagonist activity, cell-based ISG54 promoter-reporter luciferase measurement of IRF activity (THP-1 dual / RAW-ISG cells). The note with it: Antagonist Activity of Exemplary Compounds; cell line and agonist not given. The method, then: THP-1 dual cells (InvivoGen) were cultured under 5% CO2 at 37° C. in RPMI containing 10% fetal bovine serum (FBS), 100 IU mL-1 penicillin and 100 μg mL-1 streptomycin. RAW-ISG cells (InvivoGen) were cultured under 5% CO2 at 37° C. in DMEM containing 10% fetal bovine serum (FBS), 100 IU mL-1 penicillin and 100 μg mL-1 streptomycin. THP-1 dual cells were seeded into the 96 well assay plate on the day of assay whereas RAW cells were seeded into the 96 well assay plate 18 hours before the assay.
50,000 cells seeded in a 96-well flat bottom white assay plate were treated with different concentrations (10 uM to 0.01 uM) of compounds for 1 h followed by STING induction with either 30 nM SB 11285 or 10 ug/mL 2′-3′ cGAMP. The cells were then incubated for 20 hours @ 37° C. in CO2 incubator before measuring IRF activation by using Quanti-Luc (InvivoGen). The % inhibition was calculated as 100−{[(luminescence of COI treated well/luminescence of non-COI treated well)/100]×100}. IC50 was calculated by plotting in Xlfit.
50,000 cells seeded in a 96-well flat bottom white assay plate were treated with different concentrations (10 uM to 0.01 uM) of compounds for 1 h followed by STING induction with either 1 μM SB 11285 or 10 ug/mL 2′-3′ cGAMP. The cells were then incubated for 20 hours @ 37° C. in CO2 incubator before measuring IRF activation by using Quanti-Luc (InvivoGen). The % inhibition was calculated as 100−{[(luminescence of COI treated well/luminescence of non-COI treated well)/100]×100}. IC50 was calculated by plotting in Xlfit.
THP1-Dual-WT cells (InvivoGen) were plated into 96-well flat bottom plate at 5×10^4 cells/140 μL/well in triplicate. Cells were then treated with diluted antagonist compounds at 10 μL/well for 1 h, followed by treatment with compounds or 2′3′-cGAMP/lipo mixture for 18 h. The levels of IRF activity were determined using Quanti-luc (InvivoGen) and calculated against IRF activity in DMSO-treated cells. IC50 and CC50 values were calculated using Xlfit.
For the compound `N#CCCOP(O)(=S)OCCCCCCCCCCCCCCCCn1cnc2nc(Cl)nc(Cl)c21` (stereo not drawn) [Compound 90, O-(2-cyanoethyl)O-(16-(2,6-dichloro-7H-purin-7-yl)hexadecyl) O-hydrogen phosphorothioate], the IC50 (commonly the midpoint of a concentration-inhibition curve) lay in the range of 5000 to 10000 nM.

The same assay, now with this note: Antagonist Activity of Exemplary Compounds; cell line and agonist not given; read-out: IC50.
Turning to `Cc1nc2nc(Cl)nc(Cl)c2n1CCCCCCCCCCCCCCCC(=O)OC(C)(C)C` [Compound 81, tert-butyl 16-(2,6-dichloro-8-methyl-7H-purin-7-yl)hexadecanoate], the concentration for half-maximal inhibition (IC50) lay within 1000 to 5000 nM. Same read-out and setting: the same measure for `Cc1nc2nc(Cl)nc(S(=O)(=O)C(C)C)c2n1CCCCCCCCCCCCCCCC(=O)OCC1CC1` [Compound 158, Cyclopropylmethyl 16-(2-chloro-6-(isopropylsulfonyl)-8-methyl-7H-purin-7-yl)hexadecanoate]: 1 to 1000 nM; for `Cc1nc2nc(Cl)nc(S(=O)(=O)C(C)C)c2n1CCCCCCCCCCCCCCCC(=O)OC[C@H](O)CO` [Compound 133, (R)-2,3-dihydroxypropyl 16-(2-chloro-6-(isopropylsulfonyl)-8-methyl-7H-purin-7-yl)hexadecanoate]: 1000 to 5000 nM; for `COC(=O)CCCCCCCCCCCCCCCn1c(C)nc2nc(Cl)nc(S(=O)(=O)CCN)c21` [Compound 147, methyl 16-(6-((2-aminoethyl)sulfonyl)-2-chloro-8-methyl-7H-purin-7-yl)hexadecanoate]: 1000 to 5000 nM. On to `COC(=O)CCCCCCCCCCCCCCCn1cnc2c(Cl)ccnc21` [Compound 42, methyl 16-(7-chloro-3H-imidazo[4,5-b]pyridin-3-yl) hexadecanoate], for which the IC50 is greater than 20000 nM. The same measure, in the same setting: the same measure for `COC(=O)CCCCCO[C@@H]1CCN(CCCCCCn2c(C)nc3nc(Cl)nc(S(=O)(=O)C(C)C)c32)C1` [Compound 143, (3R)-1-(6-(2-chloro-6-(isopropylsulfonyl)-8-methyl-7H-purin-7-yl)hexyl)-3-((6-methoxy-6-oxohexyl)oxy)pyrrolidin-1-ium chloride]: 1000 to 5000 nM; for `COC(=O)CCCCCCCCCCCCCCCn1c(C#CC2CC2)nc2nc(Cl)nc(Cl)c21` [Compound 70, methyl 16-(2,6-dichloro-8-(cyclopropylethynyl)-7H-purin-7-yl)hexadecanoate]: 1000 to 5000 nM; for `COC(=O)CCCCCCCCCCCCCCCn1c(C)nc2nc(Cl)nc([S+]([O-])C(C)C)c21` (stereo not drawn) [Compound 128, methyl 16-(2-chloro-6-(isopropylsulfinyl)-8-methyl-7H-purin-7-yl)hexadecanoate]: 1 to 1000 nM. Regarding `Cc1nc2nc(Cl)nc(Cl)c2n1CCCCCCCCCCCCCCCC(=O)OC(C)C` [Compound 79, isopropyl 16-(2,6-dichloro-8-methyl-7H-purin-7-yl)hexadecanoate], the IC50 was in the range of 1 to 1000 nM. Still for that read-out and setting: the same measure for `Cc1nc2nc(Cl)nc(Cl)c2n1CCCCCCCCCCCCn1c(C)nc2nc(Cl)nc(Cl)c21` [Compound 59, 1,12-bis(2,6-dichloro-8-methyl-7H-purin-7-yl)dodecane]: 1 to 1000 nM.

Regarding `Cc1nc2nc(Cl)nc(S(=O)(=O)C(C)C)c2n1CCCCCCCCCCCCCCCc1noc(=O)n1C` [Compound 167, 3-(15-(2-chloro-6-(isopropylsulfonyl)-8-methyl-7H-purin-7-yl)pentadecyl)-4-methyl-1,2,4-oxadiazol-5(4H)-one], the concentration for half-maximal inhibition (IC50) is 1 to 1000 nM. The same measure, in the same setting: next, `Cc1nc2nc(Cl)nc(S(=O)(=O)C(C)C)c2n1CCCCCCCCCCCCCCCC(=O)O` [Compound 139, 16-(2-chloro-6-(isopropylsulfonyl)-8-methyl-7H-purin-7-yl)hexadecanoic acid]: 1 to 1000 nM; `COC(=O)C(CCC(C(=O)OC)n1cnc2nc(Cl)nc(Cl)c21)n1cnc2nc(Cl)nc(Cl)c21` (stereo not drawn) [Compound 57, dimethyl 2,5-bis(2,6-dichloro-7H-purin-7-yl)hexanedioate]: 1000 to 5000 nM. On the same count and under the same terms, next, `COC(=O)CCCCCCCCCCCCCCn1c(C)nc2nc(Cl)nc(S(=O)(=O)C(C)C)c21` [Compound 162, Methyl 15-(2-chloro-6-(isopropylsulfonyl)-8-methyl-7H-purin-7-yl)pentadecanoate]: 1 to 1000 nM; `Cc1nc2nc(Cl)nc(Cl)c2n1CCCCCCCCCCCCCCCC(=O)OCC(O)CO` (stereo not drawn) [Compound 85, 2,3-dihydroxypropyl 16-(2,6-dichloro-8-methyl-7H-purin-7-yl)hexadecanoate]: 1000 to 5000 nM. For `COC(=O)CCCCCCCCCCCCCCCn1ccc2nc(Cl)nc(Cl)c21` [Compound 4], the IC50 was greater than 20000 nM. Same read-out and setting: next, `Cc1nc2nc(Cl)nc(Cl)c2n1CCCCn1c(C)nc2nc(Cl)nc(Cl)c21` [Compound 64, 1,4-bis(2,6-dichloro-8-methyl-7H-purin-7-yl)butane]: greater than 20000 nM. Same read-out and setting: the same measure for `[2H]C([2H])([2H])OC(=O)CCCCCCCCCCCCCCCn1c(C)nc2nc(Cl)nc(S(=O)(=O)C(C)C)c21` [Compound 160, Methyl-d3 16-(2-chloro-6-(isopropylsulfonyl)-8-methyl-7H-purin-7-yl)hexadecanoate]: 1 to 1000 nM; for `COC(=O)Cn1c(C)nc2nc(Cl)nc(Cl)c21` [Compound 66, methyl 2-(2,6-dichloro-8-methyl-7H-purin-7-yl)acetate]: 1000 to 5000 nM. Same read-out and setting: the same measure for `Cc1nc2nc(Cl)nc(S(=O)(=O)C(C)C)c2n1CCCCCCCCCCCCCCCC(=O)OCCO` [Compound 144, 2-hydroxyethyl 16-(2-chloro-6-(isopropylsulfonyl)-8-methyl-7H-purin-7-yl)hexadecanoate]: 1 to 1000 nM; for `COC(=O)CCCCCCCCCCCCCCCn1cnc2c(Cl)nccc21` [Compound 44]: greater than 20000 nM. Take `Cc1nc2nc(Cl)nc(S(C)(=O)=O)c2n1CCCCCCCCCCCCCCCC(=O)OC(C)C` [Compound 109, isopropyl 16-(2-chloro-8-methyl-6-(methylsulfonyl)-7H-purin-7-yl)hexadecanoate]: the IC50 was in the range of 1 to 1000 nM. Still for that read-out and setting: the same measure for `CCCCCCCCC(C(=O)OCC)n1cnc2nc(Cl)nc(Cl)c21` (stereo not drawn) [Compound 36, ethyl 2-(2,6-dichloro-7H-purin-7-yl) decanoate]: 1000 to 5000 nM; for `COC(=O)CCCCCCCCCCCCCCCn1cnc2ncnc(SC)c21` [Compound 27, methyl 16-(6-(methylthio)-7H-purin-7-yl)hexadecanoate]: 5000 to 10000 nM; for `CCCCCCCCCCCCCCCCn1c(C)nc2nc(Cl)nc(Cl)c21` [Compound 77, 2,6-dichloro-7-hexadecyl-8-methyl-7H-purine]: 1 to 1000 nM. Still for that read-out and setting: next, `COC(=O)CCCCCCCCCCCCCCCn1cnc2nc(F)nc(Cl)c21` [Compound 38, methyl 16-(6-chloro-2-fluoro-7H-purin-7-yl)hexadecanoate]: 1000 to 5000 nM; `Cc1nc2nc(Cl)nc(Cl)c2n1CCCCCCCCCCCCCCCCP(=O)(O)O` [Compound 110, (16-(2,6-dichloro-8-methyl-7H-purin-7-yl)hexadecyl)phosphonic acid]: greater than 20000 nM. Same read-out and setting: next, `Cc1nc2nc(Cl)nc(Cl)c2n1CCCCCCCCCCCCCCCC(=O)OC(CO)CO` [Compound 106, 1,3-dihydroxypropan-2-yl 16-(2,6-dichloro-8-methyl-7H-purin-7-yl)hexadecanoate]: 1000 to 5000 nM. For `O=C(O)CCCCCCCCCCCCCCCn1cnc2nc(Cl)nc(Cl)c21` [Compound 30, 16-(2,6-dichloro-7H-purin-7-yl)hexadecanoic acid], the half-inhibitory concentration (IC50) lay in the range of 1000 to 5000 nM.
